row,melting point [°C],Compound
1,198 to 201,O=C(C=NO)Nc1ccc(Cl)cc1Cl
2,44,CC(C)(Cc1ccc(F)cc1)N=Cc1ccccc1
3,138 to 140,Nc1sccc1-c1nc2ccccc2s1
4,41 to 43,Cc1onc(-c2ccccc2)c1C=O
5,245,Cn1c(/C(C#N)=N/Nc2cc(Cl)ccc2Cl)nc2ccccc21
6,117 to 118,COC(=O)c1sccc1-c1ccc(C=O)o1
7,167,CC(=O)OCCN(CCC#N)c1ccc(N=Nc2nc3ccc([N+](=O)[O-])cc3s2)cc1
8,31 to 33,COc1ccc2occc2c1
9,88 to 89,Cc1c(CO)cnn1-c1ccccc1
10,193,O=C(C1=NOC2C(=O)N(c3ccc(F)cc3)C(=O)C12)c1ccc2ccccc2c1 (stereo not given)
11,23 to 25,COc1ccc(C(=O)N=C=S)cc1
12,168,NC(=O)NN=C(O)Cc1ccccc1
13,100 to 102,N#Cc1cccc(CS(=O)(=O)Cl)c1
14,123,O=C(NCCCc1ccccc1)c1cc([N+](=O)[O-])cc([N+](=O)[O-])c1
15,85 to 86,OCc1ccc(-c2ccco2)cc1
16,84 to 86,N#Cc1ccccc1Oc1ccc(Cl)cc1Cl
17,46 to 50,Clc1cc2ccccc2c2ccccc12
18,151 to 153,CCOC(=O)c1c(SC)nn(S(=O)(=O)c2ccc(C)cc2)c1N
19,58,Cc1c(Cl)ccc(O)c1Cl
20,119 to 120,COc1ccc(C(=O)C=Cc2ccc(-c3ccccc3[N+](=O)[O-])o2)cc1OC
21,70,O=[N+]([O-])c1cc(Cl)ccc1Br
22,43 to 44,Nc1cccc(-n2cccc2)c1
23,155,COC(=O)c1cc(Cl)c(NC(C)=O)cc1OC
24,221 to 222,Cc1n[nH]c(C)c1-c1ccc(-c2ccccc2)cc1
25,60,Cc1ccc(C(=CCN2CCCC2)c2ccccn2)cc1
26,110,COc1cc(C(=O)c2ccc(C)cc2)c([N+](=O)[O-])cc1OC
27,70,COc1ccc(C(O)c2ccc(OC)cc2)cc1
28,158,c1ccc2c(c1)ccc1[nH]c3ccc4ccccc4c3c12
29,198 to 199,Cc1ccc(C(c2ccc(C)o2)c2cc(Br)cc(C)c2O)o1
30,166 to 167,C1=C(c2ccccc2)Cc2ccccc21

# Further lines, the compound ahead of its results:
row,Compound,melting point [°C]
1,CC(C)(C)OC(=O)N1CCN(CCC(=O)O)CC1,138 to 139
2,O=C(O)C(Cl)CCl (stereo not given),50
3,FC(F)C(F)(F)F,-103
4,C#CC(=C)C,-113
5,Oc1c(F)c(F)c2c(F)c(F)c(F)c(F)c2c1F,120 to 124
6,O=Cc1ccccc1CN1CCOCC1,67 to 68
7,O=C1O[C@H](C(Cl)(Cl)Cl)N2CCC[C@@H]12 (relative stereo),110
8,COc1cc(C(C)=O)ccc1F,52 to 54
9,CC(C)C(=O)C(C)C,-69
10,O=[N+]([O-])c1ccc2c(c1)CCN2,93
11,CCCCC(C=O)CC (stereo not given),-76
12,C=CCC1(CC(C)C)C(=O)NC(=O)NC1=O,138
13,O=C(O)C=CC(=O)Nc1ccc(F)cc1,209 to 212
14,NC(N)=NS(=O)(=O)c1ccc(N)cc1,192
15,CC/C(=N\NC(N)=O)C1CC2(C)CCC1C2(C)C (stereo not given),222
16,CN1C(=O)Cc2cc(N)ccc21,109 to 112
17,FC(F)(F)C(F)(F)C(F)(F)C(F)(F)C(F)(F)C(F)(F)C(F)(F)C(F)(F)C(F)(F)F,-16
18,CN(CCO)CCO,-21

row,Compound,melting point [°C]
1,Cc1nn(C)c2c(N)ncnc12,238
2,CC(=O)OC1CC[C@@]2(C)C(=CC[C@@H]3[C@@H]2CC[C@@]2(C)[C@H]3CC[C@]2(O)C#Cc2ccccc2)C1 (stereo not given in full),147 to 148
3,CC12CCC3C(CCC4=CC(=O)C=CC43C)C1CCC(=O)O2 (stereo not given),218
4,NC(=S)c1ccc2c(c1)OCCO2,140 to 144
5,Cc1ccc(Cl)nn1,57
6,Cc1ccc2c(C)cccc2c1,-16.9
7,C#CC(C)(C)N,18
8,CC(=O)C1CCC2C3C=CC4=CC(=O)CCC4(C)C3CCC12C (stereo not given),170
9,COc1cc2c(cc1O)CCNC2,222
10,CCc1ccc(O)c(O)c1,39
11,O=C(O)c1cc(F)c(F)c(Br)c1F,123
12,CCCCCCCCCCCCOC(=O)c1ccc(N)cc1,82
13,Cc1ccc([N+](=O)[O-])cc1S(=O)(=O)Cl,44
14,O=C(OC(C(=O)O)C(OC(=O)c1ccccc1)C(=O)O)c1ccccc1 (stereo not given),155
15,COc1ccc(F)c(CBr)c1F,55
16,Cc1ccc(C(=O)N(C)C)cc1,41
17,NC(=O)C(F)(Br)C(F)(F)F (stereo not given),83 to 84
